Earlier results on one compound are cited in US20130085177A1, “COSMETIC COMPOSITION BASED ON ELLAGIC ACID OR A DERIVATIVE THEREOF AND ON A PARTICULAR MIXTURE OF SURFACTANTS” (priority 2010, published 2013).

`O=c1oc2c(O)c(O)cc3c(=O)oc4c(O)c(O)cc1c4c23` [ellagic acid, 2,3,7,8-tetrahydroxy(1)benzo-pyrano(5,4,3-cde)(1)benzopyran-5,10-dione]: the “solubility in water and in the solvents and oils commonly used in cosmetic compositions” value was “very low”.
